Experiments:
rape = test: Postemergent control of plant species; format: in vivo, Brassica napus; settings: Brassica napus, post-emergence, 336 h, read-out: percent postemergent control
Method in brief: (§1)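 Compounds were taken up in acetone at twice the final concentration, then diluted with an equal volume of water containing 0.1% surfactant and sprayed onto greenhouse-grown plants at the 2-4 leaf stage. Plants were kept about two weeks under growth conditions; control is growth reduction relative to untreated plants of the same species.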

soybean = test: Postemergent control of plant species; format: in vivo, Glycine max.; settings: Glycine max, post-emergence, 336 h, read-out: percent postemergent control
Method in brief: as §1

sugar beet [1] = test: Postemergent control of plant species; format: in vivo, Beta saccharifera; settings: Beta vulgaris, post-emergence, 336 h, read-out: percent postemergent control
Method in brief: as §1

cocklebur = test: Postemergent control of plant species; format: in vivo, Xanthium spp.; settings: Xanthium strumarium, post-emergence, 336 h, read-out: percent postemergent control
Method in brief: as §1

jimsonweed [2] = test: Postemergent control of plant species; format: in vivo, Datura stramonium; settings: Datura stramonium, post-emergence, 336 h, read-out: percent postemergent control
Method in brief: as §1

pigweed [3] = test: Postemergent control of plant species; format: in vivo, Amaranthus spp.; settings: Amaranthus retroflexus, post-emergence, 336 h, read-out: percent postemergent control
Method in brief: as §1

velvetleaf = test: Postemergent control of plant species; format: in vivo, Abutilon theophrasti; settings: Abutilon theophrasti, post-emergence, 336 h, read-out: percent postemergent control
Method in brief: as §1

sorghum = test: Postemergent control of plant species; format: in vivo, Sorghum vulgare; settings: Sorghum, post-emergence, 336 h, read-out: percent postemergent control
Method in brief: as §1

wheat [4] = test: Postemergent control of plant species; format: in vivo, Triticum aestivum; settings: Triticum aestivum, post-emergence, 336 h, read-out: percent postemergent control
Method in brief: as §1

barnyardgrass = test: Postemergent control of plant species; format: in vivo, Echinochloa crusgalli; settings: Echinochloa crus-galli, post-emergence, 336 h, read-out: percent postemergent control
Method in brief: as §1

yellow foxtail = test: Postemergent control of plant species; format: in vivo, Setaria lutescens; settings: Setaria, post-emergence, 336 h, read-out: percent postemergent control
Method in brief: as §1

johnson grass [5] = test: Postemergent control of plant species; format: in vivo, Sorghum halepense; settings: Sorghum halepense, post-emergence, 336 h, read-out: percent postemergent control
Method in brief: as §1

wild oats [6] = test: Postemergent control of plant species; format: in vivo, Avena fatua; settings: Avena fatua, post-emergence, 336 h, read-out: percent postemergent control
Method in brief: as §1

yellow nutsedge [7] = test: Postemergent control of plant species; format: in vivo, Cyperus esculentus; settings: Cyperus, post-emergence, 336 h, read-out: percent postemergent control
Method in brief: as §1

cotton = test: Preemergent control of plant species; format: in vivo, Gossypium spp.; settings: Gossypium hirsutum, pre-emergence, 336 h; 0.25 lb/acre; read-out: percent preemergent control
Method in brief: (§2)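 Seeds sown in agricultural soil beds in a greenhouse received aqueous emulsions of test compositions applied uniformly over the bed surface at the listed rates; water-treated beds served as control. After two weeks under greenhouse growth conditions, control was scored as growth reduction versus untreated plants of the same species.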

sugar beet [8] = test: Preemergent control of plant species; format: in vivo, Beta saccharifera; settings: Beta vulgaris, pre-emergence, 336 h; 0.25 lb/acre; read-out: percent preemergent control
Method in brief: as §2

jimsonweed [9] = test: Preemergent control of plant species; format: in vivo, Datura stramonium; settings: Datura stramonium, pre-emergence, 336 h; 0.25 lb/acre; read-out: percent preemergent control
Method in brief: as §2

pigweed [10] = test: Preemergent control of plant species; format: in vivo, Amaranthus spp.; settings: Amaranthus retroflexus, pre-emergence, 336 h; 0.25 lb/acre; read-out: percent preemergent control
Method in brief: as §2

rice = test: Preemergent control of plant species; format: in vivo, Oryza sativa; settings: Oryza sativa, pre-emergence, 336 h; 0.25 lb/acre; read-out: percent preemergent control
Method in brief: as §2

wheat [11] = test: Preemergent control of plant species; format: in vivo, Triticum aestivum; settings: Triticum aestivum, pre-emergence, 336 h; 0.25 lb/acre; read-out: percent preemergent control
Method in brief: as §2

johnson grass [12] = test: Preemergent control of plant species; format: in vivo, Sorghum halepense; settings: Sorghum halepense, pre-emergence, 336 h; 0.25 lb/acre; read-out: percent preemergent control
Method in brief: as §2

wild oats [13] = test: Preemergent control of plant species; format: in vivo; settings: Avena fatua, pre-emergence, 336 h; 0.25 lb/acre; read-out: percent preemergent control
Method in brief: as §2

[14] = system: nitrification of ammonium nitrogen; test: Suppression of nitrification of ammonium nitrogen in soil; settings: 27° C.
Method in brief: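 Value is % NH4-N remaining after a two-week, 27° C incubation of treated soil held at 1/3 bar tension moisture. Nitrate was measured with an ion-selective electrode after extraction with ammonium sulfate solution and 10 min shaking.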

yellow nutsedge [15] = test: Preemergent control of plant species; format: in vivo, Cyperus esculentus; settings: Cyperus, pre-emergence, 336 h; 0.25 lb/acre; read-out: percent preemergent control
Method in brief: as §2

SMILES | plant injury at 500 ppm (rape) [%] | plant injury at 500 ppm (soybean) [%] | plant injury at 500 ppm (sugar beet [1]) [%] | pest or weed control at 500 ppm (jimsonweed [2]) [%] | pest or weed control at 500 ppm (pigweed [3]) [%] | pest or weed control at 500 ppm (velvetleaf) [%] | plant injury at 500 ppm (sorghum) [%] | plant injury at 500 ppm (wheat [4]) [%] | pest or weed control at 500 ppm (barnyardgrass) [%] | pest or weed control at 500 ppm (yellow foxtail) [%] | pest or weed control at 500 ppm (johnson grass [5]) [%] | pest or weed control at 500 ppm (wild oats [6]) [%] | pest or weed control at 500 ppm (yellow nutsedge [7]) [%] | plant injury at 280.212 g/ha (cotton) [%] | plant injury at 280.212 g/ha (sugar beet [8]) [%] | pest or weed control at 280.212 g/ha (jimsonweed [9]) [%] | plant injury at 280.212 g/ha (rice) [%] | plant injury at 280.212 g/ha (wheat [11]) [%] | pest or weed control at 280.212 g/ha (johnson grass [12]) [%] | % NH4-N Remaining After 2 Weeks Incubation ([14]; 1 ppm) [%] | further results
CCc1cccc(CC)c1NS(=O)(=O)c1nc2nc(C)cc(C)n2n1 [Compound 33] | 60 | 40 | 40 | 40 | 10 | 80 | 80 | 0 | 0 | 0 | 60 | 0 | 10 | 20 | 50 | 40 | 0 | 40 | 0 | 77 | pest or weed control at 500 ppm (cocklebur): 60%; pest or weed control at 280.212 g/ha (pigweed [10]): 10%; pest or weed control at 280.212 g/ha (wild oats [13]): 40%; % NH4-N Remaining After 2 Weeks Incubation ([14]; 0.01 ppm): 8%; % NH4-N Remaining After 2 Weeks Incubation ([14]; 0.1 ppm): 42%; % NH4-N Remaining After 2 Weeks Incubation ([14]; 10 ppm): 88%
COC(=O)c1cccc(F)c1NS(=O)(=O)c1nc2nc(C)cc(C)n2n1 [Compound 26] | 100 | 95 | 100 | 100 | 100 | 100 | 90 | 30 | 100 | 90 | 100 | 0 | 90 | 95 | 100 | 100 | 100 | 0 | 98 | 79 | pest or weed control at 500 ppm (cocklebur): 100%; pest or weed control at 280.212 g/ha (pigweed [10]): 100%; pest or weed control at 280.212 g/ha (wild oats [13]): 40%; pest or weed control at 280.212 g/ha (yellow nutsedge [15]): 100%; % NH4-N Remaining After 2 Weeks Incubation ([14]; 0.06 ppm): 37%; % NH4-N Remaining After 2 Weeks Incubation ([14]; 0.125 ppm): 45%; % NH4-N Remaining After 2 Weeks Incubation ([14]; 0.25 ppm): 65%; % NH4-N Remaining After 2 Weeks Incubation ([14]; 0.5 ppm): 73%
Cc1cc(C)n2nc(S(=O)(=O)Nc3ccccc3[N+](=O)[O-])nc2n1 [Compound 12] | 100 | 80 | 95 | 70 | 100 | 95 | 75 | 0 | 80 | 20 | 55 | 0 | 90 | 95 | 98 | 0 | 10 | 0 | 80 | 87 | pest or weed control at 500 ppm (cocklebur): 100%; pest or weed control at 280.212 g/ha (pigweed [10]): 60%; pest or weed control at 280.212 g/ha (wild oats [13]): 0%; pest or weed control at 280.212 g/ha (yellow nutsedge [15]): 50%; % NH4-N Remaining After 2 Weeks Incubation ([14]; 0.06 ppm): 40%; % NH4-N Remaining After 2 Weeks Incubation ([14]; 0.125 ppm): 70%; % NH4-N Remaining After 2 Weeks Incubation ([14]; 0.25 ppm): 74%; % NH4-N Remaining After 2 Weeks Incubation ([14]; 0.5 ppm): 83%
Cc1cc(C)n2nc(S(=O)(=O)Nc3ccccc3F)nc2n1 [Compound 8] | 90 | 75 | 95 | 90 | 50 | 75 | 70 | 10 | 70 | 25 | 90 | 0 | 60 | 90 | 90 | 100 | 90 | 0 | 80 | 67 | pest or weed control at 500 ppm (cocklebur): 90%; pest or weed control at 280.212 g/ha (pigweed [10]): 95%; pest or weed control at 280.212 g/ha (wild oats [13]): 15%; pest or weed control at 280.212 g/ha (yellow nutsedge [15]): 75%; % NH4-N Remaining After 2 Weeks Incubation ([14]; 0.06 ppm): 4%; % NH4-N Remaining After 2 Weeks Incubation ([14]; 0.125 ppm): 23%; % NH4-N Remaining After 2 Weeks Incubation ([14]; 0.25 ppm): 44%; % NH4-N Remaining After 2 Weeks Incubation ([14]; 0.5 ppm): 59%
Cc1cc(C)n2nc(S(=O)(=O)Nc3ccccc3I)nc2n1 [Compound 6] | 80 | 70 | 90 | 30 | 30 | 90 | 80 | 0 | 35 | 0 | 80 | 0 | 90 | 70 | 95 | 0 | 80 | 0 | 0 | 78 | pest or weed control at 500 ppm (cocklebur): 90%; pest or weed control at 280.212 g/ha (pigweed [10]): 100%; pest or weed control at 280.212 g/ha (yellow nutsedge [15]): 50%; % NH4-N Remaining After 2 Weeks Incubation ([14]; 0.01 ppm): 15%; % NH4-N Remaining After 2 Weeks Incubation ([14]; 0.1 ppm): 55%; % NH4-N Remaining After 2 Weeks Incubation ([14]; 10 ppm): 87%
CC(=O)N(c1c(Cl)cccc1Cl)S(=O)(=O)c1nc2nc(C)cc(C)n2n1 [Compound 262] | 100 | 95 | 100 | 100 | 100 | 100 | 90 | 10 | 100 | 100 | 100 | 0 | 80 | 90 | 100 | 100 | 95 | 0 | 60 | 75 | pest or weed control at 280.212 g/ha (wild oats [13]): 50%; pest or weed control at 280.212 g/ha (yellow nutsedge [15]): 100%; % NH4-N Remaining After 2 Weeks Incubation ([14]; 0.06 ppm): 28%; % NH4-N Remaining After 2 Weeks Incubation ([14]; 0.25 ppm): 49%; % NH4-N Remaining After 2 Weeks Incubation ([14]; 4 ppm): 89%

— US4740233A, “Substituted 1,2,4-triazolo[1,5-a]-pyrimidine-2-sulfonamides and compositions and methods of controlling undesired vegetation and suppressing the nitrification of ammonium nitrogen in soil” (The Dow Chemical Company, priority 1986, dated 1988)
